Results from patent publication US4816441A, “Peptides and compositions” (priority 1985, dated 1989).

Key:
Daudi [1] = assay: Long-term test, LAK-like activity, Daudi targets; assay type: cell-based, human; details: 20 μg/ml; E/T 10:1
Experimental: 6×10^6 monocyte-depleted mononuclear cells were incubated in 6 ml RPMI 1640 +5% FCS, penicillin (100 IU/ml) and streptomycin (100 μg/ml) in vertically suspended Falcon flasks (Falcon Plastics, Oxnard, CA., USA, Cat. No. 3013). As in the short-term test, 1.5, 6, 25 or 100 μg peptide per ml, respectively, were added. […] Incubation for 72 h at 37° C., 7% CO2. The cells were counted, density adjusted and the cells incubated together with ^51 Cr-labelled Raji and Daudi target cells. E/T ratios were: 10:1 and 20:1. In the Daudi test the incubation lasted 16 hours, in the Raji test it was 18 hours (round-bottom microtiter plates, as above).

complement system = assay: Activation of complement: generation of C5a des-Arg in normal human serum (RIA); assay type: biochemical; details: 60 minutes incubation, aliquots at 0, 30, 60 minutes, FIG. 4
Experimental: In order to investigate the influence of the compounds of the invention on the complement system a test was performed in which the generation of the complement split product C5a was used as a measure of the activation of complement.
Aliquots were taken after 0, 30, and 60 minutes and the generated C5a des-Arg was quantitated by a commercial RIA-kit (Upjohn Company, Kalamazoo, MI).

Daudi [2] = assay: NK-like activity of PBL incubated with SpA peptides or intact SpA, 51Cr release, Daudi targets; assay type: cell-based, human; details: E/T 10:1
Experimental: (§1) K-cell activity is here defined as the increase in cell mediated cytotoxicity of normal peripheral blood leukocytes (PBL) against tumor derived target cells. PBL were isolated by the Boyum method (Scand.J.Clin.Lab.Invest. 22 (1968) 77) by centrifugation of heparinized blood from healthy donors on Ficoll-Hypaque® (Pharmacia, Uppsala, Sweden). In many experiments adherent cells were removed by incubating PBL in sterile glass bottles at 37° C. for 1 to 2 hours.
(§2) The cell lines were kept in culture in RPMI 1640 (Gibco, Paisley, Scotland, Cat. No. 041-1875) to which was added fetal calf serum (10% v/v) (FCS) as well as penicillin (100 IU/ml) and streptomycin (100 μg/ml) at 37° C. and carbon dioxide in air.
(§3) The target cells were labelled with ^51 Cr (New England Nuclear, Dreieich, West Germany).
(§4) The medium used was RPMI 1640 to which was added 10% of FCS, penicillin (100 IU/ml) and streptomycin (100 μg/ml). After incubation, the cell density was adjusted and the cells were distributed in round-bottom microtiter plates (NUNC, Roskilde, Denmark). ^51 Cr-labeled K562 target cells were added to a desired ratio between effector (E) and target (T) cells (E/T 10:1). After a further 4 hours of incubation at 37° C. with 6% CO2 in air, the plates were placed on a Titertek® microtiter plate shaker (Flow Laboratories Ltd., Ayrshire, Scotland). The microtiter plates were centrifuged and known volumes of the supernatant removed by suction and counted ^51 Cr-sample). As maximum value (^51 Cr-max), use was made of the supernatant from K562 incubated with saponin. The spontaneous release of ^51 Cr (^51 Cr-spont) was measured by incubating ^51 Cr-K562 without effector cells.
(§5) Kill %: […]
(§6) The method employed was practically the same as above for Daudi and Raji targets. The only substantial difference was that no preincubation was performed prior to addition of the ^51 Cr-labelled target cells, and the complete incubation of effector and target cells was done in 24 hours. The Kill % was calculated as described above.

Raji = assay: NK-like activity of PBL incubated with SpA peptides or intact SpA, 51Cr release, Raji targets; assay type: cell-based, human; details: E/T 10:1
Experimental: as §1, §2, §3, §4, §5, §6

[3] = Guinea pig model: anaphylactoid-like reaction after intravenous administration; assay type: in vivo, guinea pigs of Dunkin-Hartley strain; details: anaesthesized artificially ventilated guinea pigs
Experimental: Guinea pigs of Dunkin-Hartley strain (ca. 500 g) were anaesthesized with sodium pentobarbital and were surgically prepared with a catheter in the jugular vein for drug infusion. The blood pressure was registered from a carotid artery. The animals were artificially ventilated by a Harvard small animal respirator at a cycle of 38 insufflations per min. and a volume of 1 ml per 100 g animal.

## SpA: protein A from Staphylococcus aureus, purified, from Pharmacia, Uppsala, Sweden
Daudi [1]
  Stimulation index, long-term assay (LAK-like activity), Daudi: 1.19
Complement system
  Activation of complement (C5a des-Arg generation): considerable C5a generating capacity
Daudi [2]; 5 μg/ml (12.5 pmol/ml)
  % kill Daudi: 66%
Daudi [2]; 5 μg/ml (125 pmol/ml)
  % kill Daudi: 71%
Daudi [2]; 10 μg/ml (250 pmol/ml)
  % kill Daudi: 77%
Raji; 5 μg/ml (12.5 pmol/ml)
  % kill Raji: 31%
Raji; 5 μg/ml (125 pmol/ml)
  % kill Raji: 46%
Raji; 10 μg/ml (250 pmol/ml)
  % kill Raji: 46%
[3]
  Anaphylactoid-like reaction (bronchoconstriction, hypertension, later hypotension): produced an anaphylactoid-like reaction
